Among the data in US8410109B2, “Pharmaceutical compositions for the prevention and treatment of complex diseases and their delivery by insertable medical devices” (Resverlogix Corp., priority 2005, dated 2013) are melting point and inhibition values, retold here.

One data set deals with VCAM-1. The data set can be described thus: VCAM-1 ELISA on lysates of TNF-α stimulated HUVECs. The format is cell-based. Conditions: Homo sapiens, HUVEC, approx. 16 hours. Here is the method:
(§1) Compounds were dissolved in DMSO, aliquoted, and stored at −20° C. Cultured human vascular endothelial cells (HUVECs) were seeded in 96-well plates in complete EGM-2 media (˜100 μL/well); cells were plated at ˜2-3×10^5/mL, and were from passage 8 to 12. Cells were incubated overnight. On the following day cells are stimulated with TNF-α (˜1 ng/mL) in the presence or absence of compounds dissolved in DMSO. Triplicate wells were used for each test. To establish a dose curve and an IC50, multiple concentrations in 2- to 5-fold increments were used. Cells were exposed to TNF-α and compounds for approximately 16 hours. The next day, cells were visually examined via light microscopy to score for visual signs of toxicity. Cell culture media was analyzed using an MCP-1 ELISA. Cells were refed (−100 μL/well) with 20% CellTiter 96. Aqueous One Cell Proliferation Solution (Promega), 80% EGM-2 medium. Media optical density (at 490 nm) was determined after 1 hour. Plates were aspirated and cell lysates were prepared and these lysates were tested using a VCAM-1 ELISA.
(§2) In Table 2, a positive result (+) was defined as at least 50% inhibition of the protein levels MCP-1 or VCAM-1, as determined by the ELISA.
In general terms: ELISA stands for enzyme-linked immunosorbent assay.

Another data set concerns MCP-1. Kind of data set: MCP-1 ELISA on culture media of TNF-α stimulated HUVECs. The format is cell-based. The following applies: Homo sapiens, HUVEC, approx. 16 hours. Here is the method:
as §1, §2

The test system of data set [1] is Human coronary artery smooth muscle cells (CASMCs). The data set can be described thus: Smooth muscle cell proliferation protocol. The format is cell-based. The following applies: 72 hours, read-out: % Inhibition of SMC Proliferation. Here is the method: Compounds were dissolved in DMSO, aliquoted, and stored at −20° C. Human coronary artery smooth muscle cells (CASMCs) were plated in 96-well plates and were grown in SmBM-2 media. After 1-2 hours, media was aspirated and replaced with serum-free ME/F12 media, except the controls. Cells were incubated for a further 48 hours. Compounds were diluted in DME/F12 containing 10% FBS. Media was aspirated from the plates and compounds in DME/F12 containing 10% FBS. Six wells were used per condition and duplicate plates were used. Cells were incubated for a further 72 hours. Media was aspirated from one set of plates; those cells were refed (˜100 μL/well) with 20% CellTiter 96 Aqueous One Cell Proliferation Solution (Promega), 80% EGM-2 medium. Media optical density (at 490 nm) was determined after 3-4 hours. In the second set of plates, serum-free DME/F12 media (20 μL) was added to each well. Part of the supernatant (50 μL) was removed and placed in an ELISA plate and was stored temporarily at 4° C. The remaining media and cells in the second set of plates were freeze-thawed for four cycles. The lysates and supernatants were mixed and centrifuged. Part of the supernatant (50 μL) was removed and placed in an ELISA plate. The Promega Cytotox assay was performed on the ELISA plates. The ratio of supernatant OD to supernatant+cell lysate OD was determined.
In Table 2, a positive result (+) was defined as at least 40% inhibition of the proliferation of SMC, as determined by the assay.

As a reminder, the melting point is the temperature of the solid-liquid transition.

Where a name gives a salt, the structure may show the parent alone.

The compound `CN(C)Cc1ccc2c(=O)cc(-c3ccc(O)cc3)oc2n1` (as salt: hydrochloride) [EXAMPLE 26, 7-((dimethylamino)methyl-2-(4-hydroxyphenyl)-4H-pyrano[2,3-b]pyridin-4-one dihydrochloride] had a melting point of 205 °C.

In the case of `CN(C)CCOc1ccc(-c2cc(=O)c3cccnc3o2)cc1` (as salt: hydrochloride) [EXAMPLE 27, 2-(4-(2-(dimethylamino)ethoxy)phenyl)-4H-pyrano[2,3-b]pyridin-4-one dihydrochloride], the melting point is 236 to 238 °C.

Regarding `O=c1cc(-c2ccncc2)oc2ncccc12` (as salt: hydrochloride) [EXAMPLE 30, 2-(pyridin-4-yl)-4H-pyrano[2,3-b]pyridin-4-one hydrochloride], the melting point fell in the range of 248 to 250 °C.

Consider `Cc1cc(-c2cc(=O)c3cccnc3o2)cc(C)c1OCCN1CCOCC1` (as salt: hydrochloride) [EXAMPLE 31, 2-(3,5-dimethyl-4-(2-morpholinoethoxy)phenyl)-4H-pyrano[2,3-b]pyridin-4-one hydrochloride], for which the melting point lay in the range of 276 to 278 °C.

For `Cc1cc(-c2cc(=O)c3cc(CN4CCCC4)cnc3o2)cc(C)c1O` (as salt: hydrochloride) [EXAMPLE 33, 2-(4-hydroxy-3,5-dimethylphenyl)-6-(pyrrolidin-1-ylmethyl)-4H-pyrano[2,3-b]pyridin-4-one dihydrochloride], the melting point was 337 to 338 °C.

`COc1cc(OC)c2c(=O)cc(-c3ccncc3)oc2c1` (as salt: hydrochloride) [EXAMPLE 34, 5,7-dimethoxy-2-(pyridin-4-yl)-4H-chromen-4-one hydrochloride] gave a melting point of 234 to 235 °C.

As for `O=c1cc(-c2ccccc2)oc2ncc(CN3CCCC3)cc12` (as salt: hydrochloride) [EXAMPLE 35, 2-phenyl-6-(pyrrolidin-1-ylmethyl)-4H-pyrano[2,3-b]pyridin-4-one hydrochloride], the melting point was 294 to 296 °C.

Take `O=c1cc(-c2ccc(F)cc2)oc2ncc(CN3CCCC3)cc12` (as salt: hydrochloride) [EXAMPLE 37, 2-(4-fluorophenyl)-6-(pyrrolidin-1-ylmethyl)-4H-pyrano[2,3-b]pyridin-4-one hydrochloride]: the melting point was in the range of 265 to 268 °C.

On to `Nc1ccc(-c2cc(=O)c3cccnc3o2)cc1` (as salt: hydrochloride) [EXAMPLE 38, 2-(4-aminophenyl)-4H-pyrano[2,3-b]pyridin-4-one hydrochloride], for which the melting point lay in the range of 254 to 255 °C.

With `Cc1cc(-c2cc3ncccc3c(=O)[nH]2)cc(C)c1O` (as salt: hydrochloride) [EXAMPLE 40, 7-(4-hydroxy-3,5-dimethylphenyl)-1,6-naphthyridin-5(6H)-one hydrochloride], the melting point was more than 350 °C.

`COc1cc(O)nc2cc(-c3cc(C)c(O)c(C)c3)[nH]c(=O)c12` (as salt: hydrochloride) [EXAMPLE 41, 2-hydroxy-7-(4-hydroxy-3,5-dimethylphenyl)-4-methoxy-1,6-naphthyridin-5(6H)-one dihydrochloride] came in with a melting point of more than 330 °C.

`CNc1nc(-c2cc(C)c(O)c(C)c2)cc2ccc(CN3CCN(C)CC3)cc12` (as salt: hydrochloride) [EXAMPLE 43, 2,6-dimethyl-4-(1-(methylamino)-7-((4-methylpiperazin-1-yl)methyl)isoquinolin-3-yl)phenol trihydrochloride]: the melting point was in the range of 264 to 266 °C.

`O=c1cc(-c2ccc(O)cc2)oc2cnccc12` [EXAMPLE 3, 2-(4-Hydroxyphenyl)-pyrano[2,3-c]pyridin-one] showed a melting point of 294 to 296 °C. The same compound displayed an inhibition at 50 µM in the data set on VCAM-1 of less than 50%. The same compound yielded an inhibition at 50 µM in the data set on MCP-1 of less than 50%. The inhibition at 50 µM in data set [1] was not below 40%.

In the case of `O=c1cc(-c2ccc(O)c(F)c2)oc2ncccc12` [EXAMPLE 4, 2-(3-Fluoro-4-hydroxyphenyl)pyrano[2,3-b]pyridine-4-one], the melting point lay within 267 to 268 °C. The same compound came in with an inhibition at 50 µM with VCAM-1 not below 50%. The compound also had an inhibition at 50 µM in the data set with MCP-1 of less than 50%. Moreover, the inhibition at 50 µM in data set [1] was less than 40%.

In turn, `Cc1cc(-c2cc(=O)c3cccnc3o2)ccc1O` [EXAMPLE 5, 2-(4-Hydroxy-3-methylphenyl)-4H-pyrano[2,3-b]pyridine-4-one] came in with a melting point of 300 to 302 °C. The compound also came in with an inhibition at 10 µM with VCAM-1 (10 uM) of less than 50%. For the same compound, the inhibition at 10 µM with MCP-1 (10 uM) is less than 50%. Moreover, the inhibition at 10 µM in data set [1] (10 uM) is less than 40%.

In the case of `O=c1cc(-c2ccc(O)cc2)oc2ccncc12` [EXAMPLE 6, 2-(4-Hydroxyphenyl)-4H-pyrano[3,2-c]pyridin-4-one], the melting point lay within 306 to 308 °C. The same compound showed an inhibition at 50 µM in the data set on VCAM-1 not below 50%. Besides, in the data set on MCP-1, the inhibition at 50 µM is less than 50%. Also, the inhibition at 50 µM in data set [1] was not below 40%.

As to `O=c1cc(-c2ccc(O)c(Cl)c2)oc2ncccc12` [EXAMPLE 7, 2-(3-Chloro-4-hydroxyphenyl)-4H-pyrano[2,3-b]pyridine-4-one], the melting point was 259 to 262 °C. The same compound had an inhibition at 50 µM in the data set with VCAM-1 not below 50%. In the data set on MCP-1, this compound returned an inhibition at 50 µM not below 50%. In addition, the inhibition at 50 µM in data set [1] is not below 40%.

On to `COc1cc(-c2cc(=O)c3cccnc3o2)ccc1O` [EXAMPLE 8, 2-(4-Hydroxy-3-methoxyphenyl)-4H-pyrano[2,3-b]pyridine-4-one], for which the melting point is 253 to 255 °C. This compound gave an inhibition at 50 µM in the data set on VCAM-1 not below 50%. The inhibition at 50 µM with MCP-1 was less than 50%. In addition, in data set [1], the inhibition at 50 µM is less than 40%.

In the case of `COc1ccc(-c2cc(=O)c3cccnc3o2)cc1` [EXAMPLE 9, 2-(4-Methoxyphenyl)-4H-pyrano[2,3-b]pyridine-4-one], the melting point was 269 to 270 °C. Also, the inhibition at 50 µM with VCAM-1 was less than 50%. In the data set on MCP-1, this compound had an inhibition at 50 µM of less than 50%. Also, in data set [1], the inhibition at 50 µM is not below 40%.

Compound `O=c1cc(-c2ccc(OCCO)cc2)oc2ncccc12` [EXAMPLE 10, 2-(4-(2-Hydroxyethoxy)phenyl)-4H-pyrano[2,3-b]pyridine-4-one] returned a melting point of 157 to 159 °C. The inhibition at 50 µM with VCAM-1 was less than 50%. The compound also gave an inhibition at 50 µM in the data set with MCP-1 of less than 50%. Besides, the inhibition at 50 µM in data set [1] was not below 40%.

Consider `O=c1cc(-c2ccc(O)nc2)oc2ccccc12` [EXAMPLE 13, 2-(6-Hydroxypyridin-3-yl)-chromen-4-one], for which the melting point was 296 to 297 °C. In the data set with VCAM-1, this compound returned an inhibition at 50 µM not below 50%. The same compound showed an inhibition at 50 µM in the data set with MCP-1 of less than 50%. In data set [1], the inhibition at 50 µM was not below 40%.

`Oc1ccc(-c2cc3ccccc3cn2)cc1` [EXAMPLE 15, 4-Isoquinolin-3-yl-phenol] had a melting point of 218 to 219 °C. This compound showed an inhibition at 50 µM in the data set on VCAM-1 not below 50%. The same compound registered an inhibition at 50 µM in the data set on MCP-1 of less than 50%. Moreover, the inhibition at 50 µM in data set [1] was less than 40%.

Regarding `CN(C)Cc1ccc2oc(-c3ccncc3)cc(=O)c2c1` [EXAMPLE 50, 6-((dimethylamino)methyl)-2-(pyridinyl)-4H-chromen-4-one], the figures for the inhibition at 50 µM (with VCAM-1; in the data set with MCP-1; in data set [1]) were less than 50%, less than 50% and not below 40%, respectively.

Turning to `O=c1cc(-c2ccncc2)oc2cccc(CO)c12` [EXAMPLE 51, 5-(hydroxymethyl)-2-(pyridin-4-yl)-4H-chromen-4-one], the inhibition at 50 µM is less than 50% with VCAM-1, less than 50% in the data set on MCP-1 and less than 40% in data set [1].
